“And” between values parts separate entries of the source, which are not always exact repeats. Identical values can stand only once.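 Test compounds were applied to cells in 96-well plates for 48 hours at 5 doses. At the GI50, growth is halved. TGI is the concentration that stops growth completely.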
Tests used:
Assay in all cases: inhibition of tumour cell growth, NCI panel, 48 h
DMS 273 small cell lung = test system: DMS 273 small cell lung
PC-3 prostate = test system: PC-3 prostate
SW-620 colon = test system: SW-620 colon
LXFL 529 NSCLC = test system: LXFL 529 NSCLC
LOX IMVI melanoma = test system: LOX IMVI melanoma
CAKI-1 renal = test system: CAKI-1 renal
MOLT-4 leukemia = test system: MOLT-4 leukemia
KM12 colon = test system: KM12 colon
MCF7 breast = test system: MCF7 breast
OVCAR-8 ovarian = test system: OVCAR-8 ovarian

## C=C(C)c1nc(Oc2ccccc2)nc(Oc2ccccc2)n1
DMS 273 small cell lung
  TGI: 19.7 µM
PC-3 prostate
  TGI: 27.8 µM
SW-620 colon
  TGI: 15.7 µM
LXFL 529 NSCLC
  TGI: 3.88 µM
LOX IMVI melanoma
  TGI: 4.51 µM
CAKI-1 renal
  TGI: 4.44 µM
MOLT-4 leukemia
  TGI: 1.69 µM
KM12 colon
  TGI: 10.9 µM
MCF7 breast
  TGI: 12.6 µM
OVCAR-8 ovarian
  TGI: 24.4 µM

## COc1nc(N)nc2nc[nH]c12
DMS 273 small cell lung
  GI50: > 800 µM
  TGI: 500 µM and > 800 µM
PC-3 prostate
  TGI: 500 µM and > 1000 µM
SW-620 colon
  GI50: > 1000 µM
  TGI: > 1000 µM
LXFL 529 NSCLC
  TGI: > 800 µM
LOX IMVI melanoma
  GI50: 677 µM and 489 µM
  TGI: 500 µM and 800 µM and > 1000 µM
CAKI-1 renal
  GI50: 188 µM and 295 µM
  TGI: 410 µM and 522 µM and 730 µM
MOLT-4 leukemia
  GI50: > 800 µM
  TGI: 500 µM and > 800 µM and > 1000 µM
KM12 colon
  GI50: > 800 µM and 842 µM
  TGI: > 1000 µM
MCF7 breast
  GI50: 604 µM
  TGI: 500 µM and > 1000 µM
OVCAR-8 ovarian
  GI50: > 800 µM and 579 µM
  TGI: > 800 µM

## O=C1c2ccccc2C2(O)N(c3ccccc3)C(=S)N(c3ccccc3)C12O (stereo not given)
DMS 273 small cell lung
  TGI: > 100 µM
SW-620 colon
  TGI: > 100 µM
LXFL 529 NSCLC
  TGI: > 100 µM
LOX IMVI melanoma
  TGI: > 100 µM
CAKI-1 renal
  TGI: > 100 µM
MOLT-4 leukemia
  TGI: > 100 µM
KM12 colon
  TGI: > 100 µM
OVCAR-8 ovarian
  TGI: > 100 µM

## CC(=O)NC(CCCNC(=O)OCc1ccccc1)C(=O)NCc1ccccc1 (stereo not given)
DMS 273 small cell lung
  TGI: > 100 µM
SW-620 colon
  TGI: > 100 µM
LXFL 529 NSCLC
  TGI: > 100 µM
LOX IMVI melanoma
  TGI: > 100 µM
CAKI-1 renal
  TGI: > 100 µM
MOLT-4 leukemia
  TGI: > 100 µM
KM12 colon
  TGI: > 100 µM
OVCAR-8 ovarian
  TGI: > 100 µM

## CN1S(=O)(=O)N(C)P12(N=P(CP(=NP13(N(C)S(=O)(=O)N1C)N(C)S(=O)(=O)N3C)(c1ccccc1)c1ccccc1)(c1ccccc1)c1ccccc1)N(C)S(=O)(=O)N2C
DMS 273 small cell lung
  TGI: > 100 µM
SW-620 colon
  TGI: > 100 µM
LXFL 529 NSCLC
  TGI: > 100 µM
LOX IMVI melanoma
  TGI: > 100 µM
CAKI-1 renal
  TGI: > 100 µM
MOLT-4 leukemia
  TGI: > 100 µM
KM12 colon
  TGI: > 100 µM
OVCAR-8 ovarian
  TGI: > 100 µM

## O=c1c2cc(Br)ccc2nc(CNc2ccccc2)n1-c1ccccc1
DMS 273 small cell lung
  TGI: > 100 µM
SW-620 colon
  TGI: 27.5 µM
LXFL 529 NSCLC
  TGI: 36.9 µM
LOX IMVI melanoma
  TGI: 19.6 µM
CAKI-1 renal
  TGI: 11.6 µM
MOLT-4 leukemia
  TGI: > 67.7 µM
KM12 colon
  TGI: > 100 µM
OVCAR-8 ovarian
  TGI: > 57 µM

From PubChem BioAssay (NCI)
